Values of other authors as cited in article PMC10215804, “Exploring Alternative Pathways to Target Bacterial Type II Topoisomerases Using NBTI Antibacterials: Beyond Halogen-Bonding Interactions” (Antibiotics, 2023).
In brackets after ≈: the same amount, converted by molar mass.

Columns and labels:
human topoisomerase IIα = molecular target: T1, human topoisomerase IIα (Homo sapiens, UniProt P11388); conditions: residual activity at 100 µM compound; cited from earlier work
T1 construct: purchased Inspiralis (Norwich, UK)

S. aureus (ATCC 29213) = conditions: cited from earlier work
E. coli D22 = conditions: lpxC mutation; cited from earlier work
E. coli N43 (CGSC# 5583) = conditions: AcrA knockout; cited from earlier work
VRE = conditions: cited from earlier work
S. aureus DNA gyrase = molecular target: T2, S. aureus DNA gyrase (Staphylococcus aureus, UniProt P20831); conditions: supercoiling inhibition; cited from earlier work
T2 construct: purchased Inspiralis (Norwich, UK)

MRSA (QA-11.7) = conditions: cited from earlier work
E. coli (ATCC 25922) = conditions: cited from earlier work
E. faecalis RDK 057 = conditions: cited from earlier work
P. aeruginosa RDK 184 = conditions: cited from earlier work
MRSA(QA-12.1) = system: MRSA(QA-12.1); set-up: method as in PMID 35970069; conditions: cited from earlier work
E. coli DNA gyrase = molecular target: T3, E. coli DNA gyrase (Escherichia coli, UniProt P0AES4); conditions: supercoiling inhibition; cited from earlier work
T3 construct: purchased Inspiralis (Norwich, UK)

E. coli topoIV = molecular target: T4, E. coli topoIV (Escherichia coli, UniProt P0AFI2); conditions: relaxation inhibition; cited from earlier work
T4 construct: purchased Inspiralis (Norwich, UK)

MRSA (QA-11.2) = system: MRSA (QA-11.2); set-up: method as in PMID 35970069; conditions: cited from earlier work
E. coli ESBL QA-11.3 = system: E. coli ESBL QA-11.3; set-up: method as in PMID 35970069; conditions: cited from earlier work
S. aureus topoIV = molecular target: T5, S. aureus topoIV (Staphylococcus aureus, UniProt P0C1U9); conditions: relaxation inhibition; cited from earlier work
T5 construct: purchased Inspiralis (Norwich, UK)

A. baumannii = system: A. baumannii; set-up: method as in PMID 35970069; conditions: cited from earlier work
K. pneumoniae = system: K. pneumoniae; set-up: method as in PMID 35970069; conditions: cited from earlier work

T1 sequence (P11388 whole entry): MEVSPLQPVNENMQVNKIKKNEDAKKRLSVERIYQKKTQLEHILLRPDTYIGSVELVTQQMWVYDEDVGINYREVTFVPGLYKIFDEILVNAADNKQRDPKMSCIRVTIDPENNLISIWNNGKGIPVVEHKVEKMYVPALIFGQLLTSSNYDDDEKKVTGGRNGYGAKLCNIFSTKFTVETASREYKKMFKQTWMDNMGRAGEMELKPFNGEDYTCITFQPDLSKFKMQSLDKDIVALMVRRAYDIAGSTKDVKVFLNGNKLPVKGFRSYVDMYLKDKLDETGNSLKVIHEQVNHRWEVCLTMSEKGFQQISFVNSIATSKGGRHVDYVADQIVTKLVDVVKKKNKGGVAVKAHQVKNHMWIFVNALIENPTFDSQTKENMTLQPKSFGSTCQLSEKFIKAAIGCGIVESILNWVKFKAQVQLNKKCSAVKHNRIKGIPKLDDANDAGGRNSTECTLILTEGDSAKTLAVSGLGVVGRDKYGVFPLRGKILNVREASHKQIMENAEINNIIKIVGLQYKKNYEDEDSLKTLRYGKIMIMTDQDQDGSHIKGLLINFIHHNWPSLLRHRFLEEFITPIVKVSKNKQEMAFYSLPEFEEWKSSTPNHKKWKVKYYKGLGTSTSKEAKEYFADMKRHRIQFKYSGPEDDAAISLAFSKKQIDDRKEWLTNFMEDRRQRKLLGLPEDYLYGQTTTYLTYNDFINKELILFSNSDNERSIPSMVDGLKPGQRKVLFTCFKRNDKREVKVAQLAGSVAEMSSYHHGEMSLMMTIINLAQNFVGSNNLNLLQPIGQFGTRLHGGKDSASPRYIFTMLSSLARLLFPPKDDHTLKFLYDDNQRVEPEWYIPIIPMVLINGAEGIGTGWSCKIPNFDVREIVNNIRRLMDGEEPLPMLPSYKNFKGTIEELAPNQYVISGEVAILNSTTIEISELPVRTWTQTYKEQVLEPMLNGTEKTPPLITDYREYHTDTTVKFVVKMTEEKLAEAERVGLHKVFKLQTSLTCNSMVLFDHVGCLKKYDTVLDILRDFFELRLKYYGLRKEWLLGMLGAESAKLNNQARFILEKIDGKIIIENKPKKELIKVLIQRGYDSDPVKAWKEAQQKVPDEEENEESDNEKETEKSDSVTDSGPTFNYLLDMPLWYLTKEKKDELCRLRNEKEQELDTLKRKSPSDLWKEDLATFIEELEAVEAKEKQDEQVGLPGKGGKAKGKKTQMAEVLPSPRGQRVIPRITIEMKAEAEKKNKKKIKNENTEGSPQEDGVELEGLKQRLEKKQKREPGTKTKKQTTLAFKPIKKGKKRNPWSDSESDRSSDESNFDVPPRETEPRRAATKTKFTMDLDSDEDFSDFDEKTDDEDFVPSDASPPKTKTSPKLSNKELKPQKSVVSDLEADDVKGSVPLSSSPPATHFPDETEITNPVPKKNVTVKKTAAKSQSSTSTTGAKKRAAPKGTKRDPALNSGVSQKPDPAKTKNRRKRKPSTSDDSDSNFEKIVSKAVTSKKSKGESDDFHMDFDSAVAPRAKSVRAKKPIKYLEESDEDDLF
T2 sequence (P20831 whole entry): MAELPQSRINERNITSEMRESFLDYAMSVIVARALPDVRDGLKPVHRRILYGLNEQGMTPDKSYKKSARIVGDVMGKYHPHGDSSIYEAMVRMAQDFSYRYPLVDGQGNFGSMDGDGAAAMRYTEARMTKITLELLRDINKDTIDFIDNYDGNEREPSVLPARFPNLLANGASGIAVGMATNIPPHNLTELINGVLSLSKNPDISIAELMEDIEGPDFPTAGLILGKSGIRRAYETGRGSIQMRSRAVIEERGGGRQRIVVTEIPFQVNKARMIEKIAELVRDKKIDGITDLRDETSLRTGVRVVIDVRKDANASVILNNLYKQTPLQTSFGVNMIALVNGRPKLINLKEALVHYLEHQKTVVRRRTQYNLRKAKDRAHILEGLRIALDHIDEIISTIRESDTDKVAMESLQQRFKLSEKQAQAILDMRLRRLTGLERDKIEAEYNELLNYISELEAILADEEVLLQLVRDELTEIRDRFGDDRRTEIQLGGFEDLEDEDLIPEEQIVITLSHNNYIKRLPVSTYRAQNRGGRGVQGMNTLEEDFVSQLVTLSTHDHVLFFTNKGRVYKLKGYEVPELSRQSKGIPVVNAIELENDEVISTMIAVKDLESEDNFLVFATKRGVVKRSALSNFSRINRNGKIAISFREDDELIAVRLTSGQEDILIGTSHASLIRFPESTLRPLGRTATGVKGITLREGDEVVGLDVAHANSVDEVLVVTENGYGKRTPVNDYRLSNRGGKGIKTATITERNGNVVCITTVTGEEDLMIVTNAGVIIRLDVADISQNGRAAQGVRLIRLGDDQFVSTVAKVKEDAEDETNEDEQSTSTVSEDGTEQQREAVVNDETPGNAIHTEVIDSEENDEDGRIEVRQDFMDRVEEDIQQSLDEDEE
T2 sequence (P0A0K8 whole entry partner): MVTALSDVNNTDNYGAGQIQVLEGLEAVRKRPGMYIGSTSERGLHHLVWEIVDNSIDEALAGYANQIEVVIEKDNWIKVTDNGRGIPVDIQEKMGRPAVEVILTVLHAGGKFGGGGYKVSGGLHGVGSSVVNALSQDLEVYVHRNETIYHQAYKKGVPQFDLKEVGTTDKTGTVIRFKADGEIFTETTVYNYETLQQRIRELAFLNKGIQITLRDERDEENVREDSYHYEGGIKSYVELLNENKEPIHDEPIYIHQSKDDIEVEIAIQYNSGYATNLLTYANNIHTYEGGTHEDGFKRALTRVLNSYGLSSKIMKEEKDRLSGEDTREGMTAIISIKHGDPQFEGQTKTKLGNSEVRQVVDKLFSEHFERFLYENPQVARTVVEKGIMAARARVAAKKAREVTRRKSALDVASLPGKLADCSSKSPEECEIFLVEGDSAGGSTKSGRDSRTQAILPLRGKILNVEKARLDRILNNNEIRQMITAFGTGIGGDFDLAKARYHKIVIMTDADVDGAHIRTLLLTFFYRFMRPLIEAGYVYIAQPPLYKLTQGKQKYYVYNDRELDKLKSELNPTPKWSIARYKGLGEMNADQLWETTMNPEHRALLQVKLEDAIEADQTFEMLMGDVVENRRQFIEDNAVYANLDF
T3 sequence (P0AES4 whole entry): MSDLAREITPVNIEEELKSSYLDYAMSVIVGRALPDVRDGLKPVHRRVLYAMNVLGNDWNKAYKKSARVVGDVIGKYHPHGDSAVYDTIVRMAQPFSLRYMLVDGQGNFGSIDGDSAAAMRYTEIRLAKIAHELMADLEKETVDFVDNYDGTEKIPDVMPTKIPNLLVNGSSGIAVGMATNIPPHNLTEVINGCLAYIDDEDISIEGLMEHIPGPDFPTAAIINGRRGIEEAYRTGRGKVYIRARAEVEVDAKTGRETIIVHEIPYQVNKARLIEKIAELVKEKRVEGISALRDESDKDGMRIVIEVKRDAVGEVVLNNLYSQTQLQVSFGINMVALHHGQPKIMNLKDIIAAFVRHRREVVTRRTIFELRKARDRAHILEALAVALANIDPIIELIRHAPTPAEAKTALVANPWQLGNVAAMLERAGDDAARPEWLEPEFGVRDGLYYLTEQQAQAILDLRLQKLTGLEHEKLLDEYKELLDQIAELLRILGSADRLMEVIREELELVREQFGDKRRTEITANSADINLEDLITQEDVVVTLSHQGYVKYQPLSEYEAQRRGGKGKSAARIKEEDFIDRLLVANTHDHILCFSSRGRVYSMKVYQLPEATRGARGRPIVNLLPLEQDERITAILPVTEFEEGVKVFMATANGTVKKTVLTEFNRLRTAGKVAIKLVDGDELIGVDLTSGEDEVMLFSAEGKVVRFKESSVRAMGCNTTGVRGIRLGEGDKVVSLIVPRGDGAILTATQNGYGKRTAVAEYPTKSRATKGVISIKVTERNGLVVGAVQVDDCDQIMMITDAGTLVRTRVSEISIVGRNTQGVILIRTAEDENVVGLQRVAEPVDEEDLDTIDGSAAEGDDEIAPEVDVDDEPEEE

Structure (SMILES) | Human TopoIIα (% RA at 100 µM) (human topoisomerase IIα) [%] | MIC S. aureus (ATCC 29213) (S. aureus (ATCC 29213)) [µg/mL] | MIC E. coli D22 (E. coli D22) [µg/mL] | MIC E. coli N43 (CGSC# 5583) (E. coli N43 (CGSC# 5583)) [µg/mL] | MIC VRE (VRE) [µg/mL] | IC50 (S. aureus DNA gyrase) [nM] | MIC MRSA (QA-11.7) (MRSA (QA-11.7)) [µg/mL] | MIC E. coli (ATCC 25922) (E. coli (ATCC 25922)) [µg/mL] | MIC E. faecalis RDK 057 (E. faecalis RDK 057) [µg/mL] | MIC P. aeruginosa RDK 184 (P. aeruginosa RDK 184) [µg/mL] | MIC MRSA(QA-12.1) (MRSA(QA-12.1)) [µg/mL] | IC50 (E. coli DNA gyrase) [nM] | IC50 (E. coli topoIV) [nM] | MIC MRSA (QA-11.2) (MRSA (QA-11.2)) [µg/mL] | MIC E. coli ESBL QA-11.3 (E. coli ESBL QA-11.3) [µg/mL] | IC50 (S. aureus topoIV) [nM] | MIC A. baumannii (A. baumannii) [µg/mL] | MIC K. pneumoniae (K. pneumoniae) [µg/mL]
COc1ccc2nccc(CCN3CCC(NCc4ccc(Br)cc4)CC3)c2n1 [Compound 1] | 98 ± 3 | 0.125 (≈ 0.274 µM) | 0.125 (≈ 0.274 µM) | 0.125 (≈ 0.274 µM) | 2 (≈ 4.39 µM) | 26 ± 10 | 0.5 (≈ 1.1 µM) | 2 (≈ 4.39 µM) | 0.5 (≈ 1.1 µM) | 128 (≈ 281 µM) |  |  |  |  |  |  |  | 
COc1ccc2nccc(OCC3CCC(NCc4ccc(Br)cc4)CC3)c2n1 (stereo not shown) [Compound 2] | 106 ± 3 | 0.125 (≈ 0.274 µM) | 8 (≈ 17.5 µM) | 1 (≈ 2.19 µM) | 1 (≈ 2.19 µM) | 372 ± 2 | 0.25 (≈ 0.548 µM) | 64 (≈ 140 µM) | 1 (≈ 2.19 µM) | 32 (≈ 70.1 µM) | 0.25 (≈ 0.548 µM) | 4800 ± 774 | 495 ± 184 | 0.5 (≈ 1.1 µM) | 128 (≈ 280 µM) | > 100000 | 128 (≈ 280 µM) | 128 (≈ 280 µM)
